From patent publication US20080153795A1, “Medicaments and methods for wound healing” (RENOVO LIMITED, priority 2006, published 2008)

Experiments:
[1] = tested on: human punch biopsy wounds; test: Human punch biopsy wounds, re-epithelialisation by histology; type: in vivo; settings: 100 μl intradermal 10 minutes before wounding, 3 mm punch biopsy
Excerpt: Healthy male and post-menopausal female volunteers were chosen as the subjects of the study. 44 healthy subjects were recruited to the study, of whom, 40 were healthy males (aged 18-75 years) and 4 were post-menopausal females (aged 53-69 years). The average age of subjects recruited to this study was 42 years. The post-menopausal status of female subjects was confirmed by quantification of serum levels of oestradiol and follicle stimulating hormone (FSH). Serum levels of oestradiol were required to be <90 pmol/L, and follicle stimulating hormone levels >31 IU/L.
Each subject had three wounds treated with active drug, one corresponding to each of three concentrations of the medicaments produced; a fourth wound was treated with placebo control. The test medicaments and placebo control were each administered intradermally, as a single dose, at a volume of 100 μl per wound site (the upper, inner aspect of each arm), 10-minutes before wounding.
Subjects received 3 mm punch biopsies at the sites where the medicaments had been administered. After wounding, all sites received moist wound healing dressings (Standard Care).
Biopsy sites were excised, using a 5 mm punch biopsy, three days after wounding. Excised wounds were preserved for histological assessment of re-epithelialisation by image analysis. All histological assessments of early wound healing events were made using preserved 5 micron-thickness wound sections taken from the widest part of each excised biopsy site. Sections were stained with Haematoxylin and Eosin to aid visualisation of structural features, and measurements made using image analysis software. The distance traveled by the epithelium is derived from two histological measurements: the freehand total wound diameter and the freehand non-epithelialised wound diameter. […] Percentage re-epithelialisation for the new epithelium was calculated as a proportion of the total wound diameter. The average percentage re-epithelialisation value was calculated from the 44 wounds of each treatment group.

[2] = application of 100 μg in a gel to an epidermal surface, six hours from application; cited from earlier work

| Compound | re-epithelialisation three days after wounding ([1]; 0.02 μg/100 μl (0.00002%) medicament) [%] | re-epithelialisation three days after wounding ([1]; 0.1 μg/100 μl (0.0001%) medicament) [%] | re-epithelialisation three days after wounding ([1]; 0.2 μg/100 μl (0.0002%) medicament) [%] | applied oestradiol found in the skin or having passed through the skin [2] [µg] |
| --- | --- | --- | --- | --- |
| C[C@]12CC[C@@H]3c4ccc(O)cc4CC[C@H]3[C@@H]1CC[C@@H]2O [17β-oestradiol] | 37.4 | 42.3 | 42.6 | – |
| C[C@]12CC[C@@H]3c4ccc(O)cc4CC[C@H]3[C@@H]1CC[C@@H]2O [oestradiol] | – | – | – | 15.7 |
